Assay results as given in US20240287081A1, “PERFLUOROALKANE SUBSTITUTED PYRAZOLO[3,4-D]PYRIMIDIN AND PYRROLO[2,3-D]PYRIMIDIN COMPOUNDS AND USES THEREOF” (ICAHN SCHOOL OF MEDICINE AT MOUNT SINAI, priority 2021, published 2024).
Entries after “also recorded” stand apart in the source; their conditions may differ. Each block holds one compound with its values, some of them ahead of it.

Tests used:
[1] = system: ptc>dRet^M955T flies; experiment: Fly rescue assay (Drosophila MTC model ptc>dRet^M955T); type: in vivo; details: compound in fly food; for rescue (percent viability of adult flies, adults/pupae×100): 13 d at 25° C.
Method: Kinase-mutated fly stocks were obtained from Bloomington Drosophila Stock Center (BDSC; Bloomington, IN). The active mutant form of Drosophila Ret (dRet^955T) carries an M955T mutation corresponding to the M918T mutation commonly reported for multiple endocrine neoplasia (MEN) type 2B patients12,14,16,34. The ptc-gal4, UAS-GFP;UAS-dRet^M955T/SM5tub-gal80-TM6B transgenic flies were prepared according to standard protocols and crossed with non-transgenic w-flies (BDSC) to generate ptc-gal4, UAS-GFP; UAS-dRet^M955T(ptc>dRet^M955T) flies for chemical screening.
All drugs were synthesized in-house. All compounds were dissolved in DMSO (Sigma-Aldrich; St. Louis, MO) and mixed with semi-defined fly medium (BDSC) to make drug food (0.1% final DMSO concentration). For drug screening, ptc>dRet^M955T embryos were raised until adulthood on drug food for 13 d at 25° C. The number of empty pupal cases (i.e., adults) ? that of total pupal cases (P) to determine % viability. Fly randomization was used throughout the assays.
In this model, compounds are assessed based on their ability to suppress oncogenic Ret^M955T-induced tumors, which can be quantified as ‘rescue’ from lethality. […] The baseline viability of ptc>Ret^1955T flies was calibrated to zero, which creates a high bar for rescue but also reduces false-positive hits. Hundreds of flies are tested per condition (typical n values are […] administered through fly food.

[2] = system: RET (WT and M918T); experiment: NanoBRET cell based target engagement assay; details: RET-Nluc in HEK 293T cells; for cellular IC50 against RET, ranking in words: pyrazolo- and pyrrolopyrimidine series
Method: Assays were completed in duplicate. […] FIG. 8D is a graph of the cell-based target engagement for the indicated compounds against wild-type and M918T RET. IC50 values were determined based on 8-point titration curves of free ligand. Competition assays were completed in technical triplicate against full-length human RET-Nluc expressed in 293T cells, complexed with an active-site fluorescent tracer.
In this assay, a bioluminescence resonance energy transfer (BRET) signal is generated between nanoLuciferase tagged RET (expressed in HEK 293T cells) and an active-site based fluorescent tracer. […] Using this assay, in vivo binding was determined for a series of compounds against mutant (M918T) and wild-type RET (FIG. 8D).

[3] = system: HCC tumor organoids, BC (B-Catenin); experiment: 3D HCC tumor organoid viability, BC model; type: cell-based; details: 5.0 μM, viability three days post drug administration
Method: (§1) For assays in HCC tumor organoids, 96 well plates were first coated with a 50:50 solution of basal media:Matrigel ([…]), which polymerized for 15 minutes at 37° C. Tumor organoids were taken out of Matrigel, broken, and washed. Tumor organoids were seeded at 1,000 cells per well and were treated the following day with single doses of drugs in technical triplicate. Final DMSO concentrations were kept below 0.5%. Cell viability was measured three days post drug administration with either luminescence from CellTiter-Glo or absorbance at 560 and 590 nm from resazurin. Viability data was analyzed by normalizing individual drug-treated well values to DMSO-treated wells (BC=B-Catenin; SR=sorafenib resistant). Results of 3D HCC cell line data for pyrazolo- and pyrrolopyrimidine compounds at 0.5 μm (FIGS. 22A-F), 0.05 μm (FIGS. 23A-F), and 5.0 μm (FIGS. 24A-F) were obtained. […] In the BC model, at 5.0 μM, the top ten compounds were: APS-8-100-4, APS-8-52-3, APS-8-51-4, APS-7-25-2, APS-8-100-3, APS-8-51-3, APS-8-50-4, APS-8-52-4, and APS-7-38. In the SR model, at 5.0 μM, the top ten compounds were: APS-8-51-3, APS-8-50-4, APS-8-51-4, APS-8-52-3, APS-8-50-3, APS-7-52-2, APS-8-52-4, APS-7-52-1, and APS-8-100-4.

[4] = system: HCC tumor organoids, SR (sorafenib resistant); experiment: 3D HCC tumor organoid viability, SR model; type: cell-based; details: 5.0 μM, viability three days post drug administration
Method: as §1

[5] = system: panel of 468 purified human kinases; experiment: In vitro kinase percent inhibition, panel of 468 kinases (DiscoverX); type: binding; details: 1 μM; for binding to wild-type RET and RET^M918T, in words: kinase panel; for binding profile / selectivity across the kinome, in words: panel of 468 kinases
Method: Compounds were assayed against a panel of 468 purified human kinases (DiscoverX) to measure percentage inhibition values and derive kinome profiles (FIGS. 3B-3C). All compounds were screened at 1 μM, using two experimental replicates to determine percent inhibition values. Detailed procedures for kinase reactions and assay formats are described at http://www.discoverx.com. Raw data sets for individual compounds were filtered based on the variance of experimental replicates (cutoff=average variance+standard deviation).

SMILES: CC(C)n1nc(-c2ccc(NC(=O)Nc3cc(C(F)(F)C(F)(F)F)ccc3F)cc2)c2c(N)ncnc21 [APS-5-86-2, 1-(4-(4-Amino-1-isopropyl-1H-pyrazolo[3,4-d]pyrimidin-3-yl)phenyl)-3-(2-fluoro-5-(perfluoroethyl)phenyl)urea]
rescue (percent viability of adult flies, adults/pupae×100) ([1]; baseline viability 0%): 92%
cellular IC50 wild-type RET versus M918T mutant, in words [2]: not observed

SMILES: CC(C)n1cc(-c2ccc(NC(=O)Nc3cc(C(F)(C(F)(F)F)C(F)(F)F)ccc3F)cc2)c2c(N)ncnc21 [APS-7-25-2, 1-(4-(4-Amino-7-isopropyl-7H-pyrrolo[2,3-d]pyrimidin-5-yl)phenyl)-3-(2-fluoro-5-(perfluoropropan-2-yl)phenyl)urea]
ranking by inhibition of cell proliferation, BC model [3]: top ten

SMILES: CC(C)n1cc(-c2ccc(NC(=O)Nc3cc(C(F)(F)C(F)(F)F)ccc3F)cc2)c2c(N)ncnc21 [APS-7-38, 1-(4-(4-Amino-7-isopropyl-7H-pyrrolo[2,3-d]pyrimidin-5-yl)phenyl)-3-(2-fluoro-5-(perfluoroethyl)phenyl)urea]
ranking by inhibition of cell proliferation, BC model [3]: top ten

SMILES: CC(C)n1nc(-c2ccc(NC(=O)Nc3cccc(C(F)(F)C(F)(F)C(F)(F)C(F)(F)F)c3)cc2)c2c(N)ncnc21 [APS-7-46-2, 1-(4-(4-Amino-1-isopropyl-1H-pyrazolo[3,4-d]pyrimidin-3-yl)phenyl)-3-(3-(perfluorobutyl)phenyl)urea]
rescue (percent viability of adult flies, adults/pupae×100) ([1]; baseline viability 0%): over 80%

SMILES: CC(C)n1nc(-c2ccc(NC(=O)Nc3cccc(C(F)(F)C(F)(F)C(F)(F)F)c3)cc2)c2c(N)ncnc21.O=C(O)C(F)(F)F [APS-7-52-1, 1-(4-(4-Amino-1-isopropyl-1H-pyrazolo[3,4-d]pyrimidin-3-yl)phenyl)-3-(3-(perfluoropropyl)phenyl)urea 2,2,2-trifluoroacetate]
ranking by inhibition of cell proliferation, SR model [4]: top ten

SMILES: CC(C)n1cc(-c2ccc(NC(=O)Nc3cccc(C(F)(F)C(F)(F)C(F)(F)F)c3)cc2)c2c(N)ncnc21.O=C(O)C(F)(F)F [APS-7-52-2, 1-(4-(4-Amino-7-isopropyl-7H-pyrrolo[2,3-d]pyrimidin-5-yl)phenyl)-3-(3-(perfluoropropyl)phenyl)urea 2,2,2-trifluoroacetate]
ranking by inhibition of cell proliferation, SR model [4]: top ten

SMILES: CC(C)n1nc(-c2ccc(NC(=O)Nc3ccc(C(F)(C(F)(F)F)C(F)(F)C(F)(F)F)cc3)cc2)c2c(N)ncnc21 (stereo not drawn) [APS-8-6-2, 1-(4-(4-Amino-1-isopropyl-1H-pyrazolo[3,4-d]pyrimidin-3-yl)phenyl)-3-(4-(perfluorobutan-2-yl)phenyl)urea]
rescue activity in the fly model, in words [1]: one of the highest rescues in the MTC fly assay; also recorded: exceptional in vivo activity
rescue (percent viability of adult flies, adults/pupae×100) ([1]; baseline viability 0%, listed as 65): 99%
binding to wild-type RET and RET^M918T, in words [5]: more potent than 43 on wild-type and mutant RET
binding to wild-type RET and RET^M918T, in words ([5]; listed as 8-6-2): highly potent on both wild-type and RET^M918T
binding profile / selectivity across the kinome, in words [5]: generally promiscuous KI
binding profile / selectivity across the kinome, in words ([5]; listed as 8-6-2): overall selectivity profile in between 4-9-8 and 8-82-1
cellular IC50 against RET, ranking in words [2]: highest IC50 values

SMILES: CC(C)n1nc(-c2ccc(NC(=O)Nc3ccc(C(F)(C(F)(F)F)C(F)(F)F)cc3)cc2)c2c(N)ncnc21 [APS-8-50-3, 1-(4-(4-Amino-1-isopropyl-1H-pyrazolo[3,4-d]pyrimidin-3-yl)phenyl)-3-(4-(perfluoropropan-2-yl)phenyl)urea]
ranking by inhibition of cell proliferation, SR model [4]: top ten

SMILES: CC(C)n1cc(-c2ccc(NC(=O)Nc3ccc(C(F)(C(F)(F)F)C(F)(F)F)cc3)cc2)c2c(N)ncnc21 [APS-8-50-4, 1-(4-(4-Amino-7-isopropyl-7H-pyrrolo[2,3-d]pyrimidin-5-yl)phenyl)-3-(4-(perfluoropropan-2-yl)phenyl)urea]
ranking by inhibition of cell proliferation, BC model [3]: top ten
ranking by inhibition of cell proliferation, SR model [4]: top ten

SMILES: CC(C)n1nc(-c2ccc(NC(=O)Nc3ccc(C(F)(F)C(F)(F)C(F)(F)C(F)(F)F)cc3)cc2)c2c(N)ncnc21 [APS-8-52-3, 1-(4-(4-Amino-1-isopropyl-1H-pyrazolo[3,4-d]pyrimidin-3-yl)phenyl)-3-(4-(perfluorobutyl)phenyl)urea]
ranking by inhibition of cell proliferation, BC model [3]: top ten
ranking by inhibition of cell proliferation, SR model [4]: top ten

SMILES: CC(C)n1cc(-c2ccc(NC(=O)Nc3ccc(C(F)(F)C(F)(F)C(F)(F)C(F)(F)F)cc3)cc2)c2c(N)ncnc21 [APS-8-52-4, 1-(4-(4-Amino-7-isopropyl-7H-pyrrolo[2,3-d]pyrimidin-5-yl)phenyl)-3-(4-(perfluorobutyl)phenyl)urea]
ranking by inhibition of cell proliferation, BC model [3]: top ten
ranking by inhibition of cell proliferation, SR model [4]: top ten

cellular IC50 against RET, ranking in words [2]: highest IC50 values
SMILES: CC(C)n1nc(-c2ccc(NC(=O)Nc3cccc(C(F)(C(F)(F)F)C(F)(F)C(F)(F)F)c3)cc2)c2c(N)ncnc21 (stereo not drawn) [APS-8-56-3, 1-(4-(4-Amino-1-isopropyl-1H-pyrazolo[3,4-d]pyrimidin-3-yl)phenyl)-3-(3-(perfluorobutan-2-yl)phenyl)urea 2,2,2-trifluoroacetate]

SMILES: CC(C)n1cc(-c2ccc(NC(=O)Nc3ccc(C(F)(C(F)(F)F)C(F)(F)C(F)(F)F)cc3)cc2)c2c(N)ncnc21 (stereo not drawn) [APS-8-82-2, 1-(4-(4-Amino-7-isopropyl-7H-pyrrolo[2,3-d]pyrimidin-5-yl)phenyl)-3-(4-(perfluorobutan-2-yl)phenyl)urea 2,2,2-trifluoroacetate]
rescue activity in the fly model, in words [1]: exceptional in vivo activity
rescue (percent viability of adult flies, adults/pupae×100) ([1]; baseline viability 0%, 2,2,2-trifluoroacetate): 100%
cellular IC50 against RET, ranking in words [2]: highest IC50 values

SMILES: CC(C)n1nc(-c2ccc(NC(=O)Nc3ccc(C(F)(F)C(F)(F)F)cc3)cc2)c2c(N)ncnc21 [APS-8-100-3, 1-(4-(4-Amino-1-isopropyl-1H-pyrazolo[3,4-d]pyrimidin-3-yl)phenyl)-3-(4-(perfluoroethyl)phenyl)urea]
rescue activity in the fly model, in words [1]: exceptional in vivo activity
rescue (percent viability of adult flies, adults/pupae×100) ([1]; baseline viability 0%): 100%
ranking by inhibition of cell proliferation, BC model [3]: top ten
cellular IC50 against RET, ranking in words [2]: lowest IC50 values among the para-substituted compounds tested

SMILES: CO[C@]1(C(=O)N[C@@H](C)c2ccc(-n3cc(F)cn3)nc2)CC[C@H](c2nc(C)cc(Nc3cc(C)[nH]n3)n2)CC1 [Blu667, reference compound]
cellular IC50 wild-type RET versus M918T mutant, in words [2]: slightly lower IC50 values towards wild-type RET over the M918T mutant

SMILES: COc1ccc(CN2C3CC2CN(c2ccc(-c4cc(OCC(C)(C)O)cn5ncc(C#N)c45)cn2)C3)cn1 [Loxo292, reference compound]
cellular IC50 wild-type RET versus M918T mutant, in words [2]: slightly lower IC50 values towards wild-type RET over the M918T mutant

SMILES: CNC(=O)c1cc(Oc2ccc(NC(=O)Nc3ccc(C(C)(F)C(C)(C)C)cc3)cc2)ccn1 (stereo not drawn) [compound 44]
rescue (percent viability of adult flies, adults/pupae×100) ([1]; baseline viability 0%): 55%

SMILES: CNC(=O)c1cc(Oc2ccc(NC(=O)Nc3ccc(Cl)c(C(F)(F)F)c3)c(F)c2)ccn1 [regorafenib, reference compound]
cellular IC50 wild-type RET versus M918T mutant, in words [2]: slightly lower IC50 values towards wild-type RET over the M918T mutant
